Measured values from patent publication EP4247399B1, “COMPOSITION COMPRISING NATURAL EXTRACTS AND USES THEREOF” (Esserre Pharma Srl, priority 2020, dated 2022).

Molecular target: T1, HMG-CoA reductase (Homo sapiens, UniProt P04035)
T1 construct: purchased Sigma-Aldrich CS1090
T1 sequence (P04035 426-888 limits assumed): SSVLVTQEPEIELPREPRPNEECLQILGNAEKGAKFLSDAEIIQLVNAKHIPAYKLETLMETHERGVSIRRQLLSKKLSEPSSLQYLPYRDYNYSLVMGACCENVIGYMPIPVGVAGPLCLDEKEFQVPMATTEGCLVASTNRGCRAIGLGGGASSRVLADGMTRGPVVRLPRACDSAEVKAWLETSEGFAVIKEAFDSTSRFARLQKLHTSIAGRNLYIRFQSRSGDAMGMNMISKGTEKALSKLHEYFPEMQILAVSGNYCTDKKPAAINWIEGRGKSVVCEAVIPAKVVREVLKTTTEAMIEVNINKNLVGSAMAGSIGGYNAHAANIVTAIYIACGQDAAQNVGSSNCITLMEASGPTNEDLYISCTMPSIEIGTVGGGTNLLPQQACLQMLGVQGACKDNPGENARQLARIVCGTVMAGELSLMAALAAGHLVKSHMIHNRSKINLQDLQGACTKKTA
Assay: HMG-CoA reductase inhibition test (HMG-CoA Reductase Assay Kit, decrease in absorbance at 340 nm)
Format: biochemical
Details: positive control
Experimental: The purpose of the test is to evaluate the hypocholesterolemic activity of the test samples by determining the inhibition of the enzyme 3-hydroxy-3-methylglutaryl-CoA reductase (HMG-CoA reductase).
The test for the HMG-CoA reductase enzyme inhibitory capacity was performed using the special kit (HMG-CoA Reductase Assay Kit, Catalogue Number CS1090, Sigma-Aldrich) and related experimental protocol.
The experiments were carried out in triplicate.
5 mL of buffer were added to 50 mg of the test sample and the solution obtained was then suitably filtered and used for the test.
A 100 µM Pravastatin solution (0.042 mg/mL, Sigma Aldrich) was used as a positive control.
The samples thus prepared were stirred for 10 seconds. Absorbance was then measured at 340 nm for 10 minutes while maintaining the samples at 37°C.
The ability to inhibit enzyme activity was then expressed as percent inhibition and calculated according to the following Equation (1): %Hinibition = ((ΔAControl −ΔAsample)/(ΔAControl)) × 100% [formula] where the value of ΔA is given by the difference between the absorbance recorded at the start time and that recorded after 10 minutes for the control and for the sample respectively. […]

SMILES: CC[C@H](C)C(=O)O[C@H]1C[C@H](O)C=C2C=C[C@H](C)[C@H](CC[C@@H](O)C[C@@H](O)CC(=O)O)[C@H]21 [Pravastatin]
- inhibition at 10 µg/mL (Pravastatin 0.01 mg/mL (10 µg/mL)): 99.8%
- inhibition at 100 µM (Pravastatin 0.042 mg/ml (100 µM)): 99.6 ± 1.1%
